Patent EP3822285A1, “VARIANT NISIN PEPTIDES” (University College Cork-National University of Ireland, Cork, priority 2019, dated 2021)
Converted amounts (≈) assume the structure as drawn. “And” between values parts separate entries of the source, which are not always exact repeats. Identical values can stand only once. Marks after values point to notes of the source that are not given here.

Experiments:
Type in all cases: cell-based
[1] = tested on: Thermus scotoductus SE-1; assay: Agar diffusion assay with cell free supernatant of producing strains; conditions: zone diameter relative to Nisin A wild type (100)
Protocol: (§1) Agar diffusion assays were carried out in triplicate using nisin producing and indicator (T. thermophilus HB27 and T. scotoductus Se-1) strains. Both the producer and indicator strains were cultured as per conditions described above. One ml of overnight culture of indicators were added to 50ml of molten Castenholz agar, briefly swirled and poured. Wells were made using sterile glass pipette. To generate cell free supernatant from nisin producing strains, 10 mls of overnight cultures of the strains were centrifuged at 950g for 20 mins. The cell free supernatant was transferred to a sterile tube. 50 µl of cell free supernatant was added to wells described above. Plates were incubated at 55°C for 3 days and the zone of clearance measured.
(§2) The cell free supernatant of nisin A and nisin variant producing L. lactis was used to determine the bioactivity of these lantibiotics against T. thermophilus HB27 and T. scotoductus SE-1 using agar diffusion assays, with the zone of clearance representing the bioactivity of the producing strain (i.e., representing a combination of the amount of the peptide produced and the specific activity of that peptide). […] Among the variants tested were those with altered N-terminal domains. The N-terminal domain of nisin is important for binding with the pyrophosphate moiety of lipid II to mediate pore formation in the cell membrane. Lysine (K) at position 12, which serves as a small flexible region between ring B and C, and is one of among the 5 positively charged residues (K12, K22, K34, H27, […]) of nisin A that contributes to its cationic nature and its attraction to the cell envelope.

[2] = tested on: Thermus thermophilus HB27; assay: as above; conditions: zone diameter relative to Nisin A wild type (100)
Protocol: as §1, §2

[3] = tested on: T. aquaticus; assay: Minimum inhibitory concentration assay (Thermus); conditions: for MIC: pure peptide, mean of triplicate assays
Protocol: (§3) Minimum inhibitory concentration (MIC) determinations for gram negative Thermus strains were carried out in triplicate in round bottom microtitre plates (Corning). 96 well microtitre plates were pre-treated with bovine serum albumin (BSA) prior to addition of the peptides. Briefly, to each well of the microtire plates 200 µl of d.H2O (filtered with 0.2 µm filter) containing 1% (w/w) BSA was added and incubated at 37°C for 30 mins. The wells were washed with 200 µl of IX phosphate buffered saline (PBS) for 2 times after removing 1% BSA d.H2O. 100 µl of growth media, i.e., Castenholz, was added to each well. […] Target strains were grown overnight as per conditions mention above, 0.5 ml of overnight was subcultured in to 10 mls of fresh Castenholz medium and allowed to grow to an OD600 of ∼0.5. 20µl of this subculture was added to 980µl of media, 150µl of this dilution added to 14.85 ml of growth media. 100µl of this dilution added to each well resulting in a final inoculum of ∼10^5 cfu/ml in 200µl. The plates were incubated at 55° C for 3 days and the MIC was determined as the lowest concentration at which no growth was visible.
(§4) The bioactivity of cell-free supernatant can be influenced by altered diffusion rates, solubility, production or specific activity. To determine to what extent, if any, the bioactivity noted above is due to increased specific activity, nisin A (control) and the derivatives were purified and their molecular weights confirmed by MALDI TOF mass spectrometry (Table: 6) (Figure: 4). These peptides were used to perform minimum inhibitory concentration assays against six Thermus strains, i.e., T. thermophilus HB27, T. scotoductus SE-1, T. rehai, T. oshimai, T. aquaticus and T. brockianus.

[4] = tested on: T. brockianus; assay: Minimum inhibitory concentration assay (Thermus); conditions: pure peptide, mean of triplicate assays
Protocol: as §3, §4

[5] = tested on: T. oshimai; assay: Minimum inhibitory concentration assay (Thermus); conditions: for MIC: pure peptide, mean of triplicate assays
Protocol: as §3, §4

[6] = tested on: T. rehai; assay: Minimum inhibitory concentration assay (Thermus); conditions: for MIC: pure peptide, mean of triplicate assays
Protocol: as §3, §4

[7] = tested on: T. scotoductus SE-1; assay: Minimum inhibitory concentration assay (Thermus); conditions: pure peptide, mean of triplicate assays
Protocol: as §3, §4

[8] = tested on: T. thermophilus HB27; assay: Minimum inhibitory concentration assay (Thermus); conditions: for MIC: pure peptide, mean of triplicate assays
Protocol: as §3, §4

C=C(NC(=O)[C@@H](NC(=O)[C@H](Cc1c[nH]cn1)NC(=O)[C@@H](NC(=O)[C@H](CO)NC(=O)[C@@H]1CS[C@@H](C)[C@H]2NC(=O)[C@H](C)NC(=O)[C@H](NC(=O)[C@H](CCCCN)NC(=O)[C@H](Cc3ccc(O)cc3)NC(=O)[C@H](CC(N)=O)NC(=O)[C@@H]3CS[C@@H](C)[C@@H](NC(=O)[C@H](CCCCN)NC(=O)[C@@H]4CS[C@@H](C)[C@@H](NC(=O)[C@@H]5CSC[C@@H](NC(=O)/C(=C/C)NC(=O)[C@@H](N)[C@@H](C)CC)C(=O)N[C@@H]([C@@H](C)CC)C(=O)NC(=C)C(=O)N[C@@H](CC(C)C)C(=O)N5)C(=O)N5CCC[C@H]5C(=O)NCC(=O)N4)C(=O)NCC(=O)N[C@@H](C)C(=O)N[C@@H](CC(C)C)C(=O)N[C@@H](CCSC)C(=O)NCC(=O)N3)[C@H](C)SC[C@H](NC2=O)C(=O)N[C@@H](Cc2c[nH]cn2)C(=O)N1)[C@@H](C)CC)C(C)C)C(=O)N[C@@H](CCCCN)C(=O)O [M21Y]
% of wild type [1]: 115% | % difference [2]: 115% | MIC [3]: 6.6 µg/L and 0.00195 µM | MIC [4]: 0.0312 µM (≈ 0.106 µg/mL) | MIC [5]: 13.2 µg/L and 0.0039 µM | MIC [6]: 13.2 µg/L and 0.0039 µM | MIC [7]: 0.0625 µM (≈ 0.212 µg/mL) | fold better activity than nisin A [8]: two-fold | MIC [8]: 13.2 µg/L and 0.0039 µM

C=C(NC(=O)[C@@H](NC(=O)[C@H](Cc1c[nH]cn1)NC(=O)[C@@H](NC(=O)[C@H](CO)NC(=O)[C@@H]1CS[C@@H](C)[C@H]2NC(=O)[C@H](C)NC(=O)[C@H](NC(=O)[C@H](CCCCN)NC(=O)[C@H](CCSC)NC(=O)[C@H](CC(N)=O)NC(=O)[C@@H]3CS[C@@H](C)[C@@H](NC(=O)[C@H](CCCCN)NC(=O)[C@@H]4CS[C@@H](C)[C@@H](NC(=O)[C@@H]5CSC[C@@H](NC(=O)/C(=C/C)NC(=O)[C@@H](N)[C@@H](C)CC)C(=O)N[C@@H]([C@@H](C)CC)C(=O)NC(=C)C(=O)N[C@@H](CC(C)C)C(=O)N5)C(=O)N5CCC[C@H]5C(=O)NCC(=O)N4)C(=O)NCC(=O)N[C@@H](C)C(=O)N[C@@H](CC(C)C)C(=O)N[C@@H](CCSC)C(=O)NCC(=O)N3)[C@H](C)SC[C@H](NC2=O)C(=O)N[C@@H](CCC(N)=O)C(=O)N1)[C@@H](C)CC)C(C)C)C(=O)N[C@@H](CCCCN)C(=O)O [H27Q]
% of wild type [1]: 115% | % difference [2]: 136* (0.031) % | fold better activity than nisin A [3]: 14 fold | MIC [3]: 3.26 µg/L and 0.000975 µM | MIC [4]: 0.0156 µM (≈ 0.0522 µg/mL) | fold better activity than nisin A [5]: 8 fold | MIC [5]: 3.2 µg/L and 0.000975 µM | fold better activity than nisin A [6]: 8 fold | MIC [6]: 3.2 µg/L and 0.000975 µM | MIC [7]: 0.0625 µM (≈ 0.209 µg/mL) | fold better activity than nisin A [8]: 8 fold | MIC [8]: 3.2 µg/L and 0.000975 µM

C=C(NC(=O)[C@@H](NC(=O)[C@H](Cc1c[nH]cn1)NC(=O)[C@@H](NC(=O)[C@H](CO)NC(=O)[C@@H]1CS[C@@H](C)[C@H]2NC(=O)[C@H](C)NC(=O)[C@H](NC(=O)[C@H](CCCCN)NC(=O)[C@H](CCC(N)=O)NC(=O)[C@H](CC(N)=O)NC(=O)[C@@H]3CS[C@@H](C)[C@@H](NC(=O)[C@H](CCCCN)NC(=O)[C@@H]4CS[C@@H](C)[C@@H](NC(=O)[C@@H]5CSC[C@@H](NC(=O)/C(=C/C)NC(=O)[C@@H](N)[C@@H](C)CC)C(=O)N[C@@H]([C@@H](C)CC)C(=O)NC(=C)C(=O)N[C@@H](CC(C)C)C(=O)N5)C(=O)N5CCC[C@H]5C(=O)NCC(=O)N4)C(=O)NCC(=O)N[C@@H](C)C(=O)N[C@@H](CC(C)C)C(=O)N[C@@H](CCSC)C(=O)NCC(=O)N3)[C@H](C)SC[C@H](NC2=O)C(=O)N[C@@H](Cc2c[nH]cn2)C(=O)N1)[C@@H](C)CC)C(C)C)C(=O)N[C@@H](CCCCN)C(=O)O [M21Q]
% of wild type [1]: 124* (0.05) % | % difference [2]: 123% | MIC [3]: 26.1 µg/L and 0.0078 µM | MIC [4]: 0.0156 µM (≈ 0.0523 µg/mL) | MIC [5]: 6.5 µg/L and 0.00195 µM | MIC [6]: 13 µg/L and 0.0039 µM | MIC [7]: 0.0625 µM (≈ 0.209 µg/mL) | MIC [8]: 0.0039 µM (≈ 0.0131 µg/mL)

C=C(NC(=O)[C@@H](NC(=O)[C@H](Cc1c[nH]cn1)NC(=O)[C@@H](NC(=O)[C@H](CO)NC(=O)[C@@H]1CS[C@@H](C)[C@H]2NC(=O)[C@H](C)NC(=O)[C@H](NC(=O)[C@H](CCCCN)NC(=O)[C@H](CCSC)NC(=O)[C@@H]3CCCN3C(=O)[C@@H]3CS[C@@H](C)[C@@H](NC(=O)[C@H](CCCCN)NC(=O)[C@@H]4CS[C@@H](C)[C@@H](NC(=O)[C@@H]5CSC[C@@H](NC(=O)/C(=C/C)NC(=O)[C@@H](N)[C@@H](C)CC)C(=O)N[C@@H]([C@@H](C)CC)C(=O)NC(=C)C(=O)N[C@@H](CC(C)C)C(=O)N5)C(=O)N5CCC[C@H]5C(=O)NCC(=O)N4)C(=O)NCC(=O)N[C@@H](C)C(=O)N[C@@H](CC(C)C)C(=O)N[C@@H](CCSC)C(=O)NCC(=O)N3)[C@H](C)SC[C@H](NC2=O)C(=O)N[C@@H](Cc2c[nH]cn2)C(=O)N1)[C@@H](C)CC)C(C)C)C(=O)N[C@@H](CCCCN)C(=O)O [N20P]
% of wild type [1]: 115% | % difference [2]: 97% | MIC [3]: 0.0156 µM (≈ 0.0521 µg/mL) | MIC [4]: 0.0625 µM (≈ 0.209 µg/mL) | MIC [5]: 0.0625 µM (≈ 0.209 µg/mL) | MIC [6]: 0.0625 µM (≈ 0.209 µg/mL) | MIC [7]: 0.125 µM (≈ 0.417 µg/mL) | MIC [8]: 0.0156 µM (≈ 0.0521 µg/mL)
